Laboratory results reported in US20210330611A1, “THERAPY FOR NEUROLOGICAL DISEASES/DISORDERS” (priority 2020, published 2021).
Several values for one entry are separate records, joined by “and”; a condition that tells them apart may be missing. Identical values can stand only once. Counter-ions that a name gives are not always drawn. Like-named read-outs stand apart in the source and are kept apart here.

Tests used:
[1] = test system: fibrin-induced microglia activation; assay: Image-based assay of fibrin-induced microglia activation (HTS and dose response); type: cell-based, rat; settings: for IC50 / inhibition at 10 µM: Rattus norvegicus, Microglia; for inhibition at 10 µM: primary microglia HTS, fibrin stimulation, increased cell size (>800 μm^2) as marker of activation, read-out: Fibrin % inhibition
[2] = test system: LPS-induced microglia activation; assay: Image-based assay of LPS-induced microglia activation (HTS and dose response); type: cell-based, rat; settings: Rattus norvegicus, Microglia; for inhibition at 10 µM: primary microglia HTS, LPS stimulation, increased cell size (>800 μm^2) as marker of activation, read-out: LPS % inhibition
[3] = test system: fibrin- and LPS-induced microglia activation; assay: cells; type: cell-based, rat; settings: for inhibition at 10 µM: Rattus norvegicus
in vitro [4] = settings: rat, Cell Toxicity IC50 (uM) [cFib assay]
in vitro [5] = settings: rat
primary rat microglia [6] = assay: Cell toxicity (dead cells, size <150 μm2) in LPS assay; settings: for LPS % cell toxicity: primary microglia HTS, LPS stimulation, decreased size (<150 μm^2) as marker of toxicity; for IC50: read-out: Cell Toxicity IC50 (uM) [LPS assay], LPS assay
primary rat microglia [7] = assay: Cell toxicity (dead cells, size <150 μm2) in coated fibrin (cFib) assay; settings: primary microglia HTS, fibrin stimulation; decreased size (<150 μm^2) as marker of toxicity;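 on Fibrin % cell toxicity: share of dead cells sized under 150 µm2 at 10 µM in fibrin-stimulated microglia HTS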
[8] = 48 h, Table 1, dose response 0.001-20 μM, triplicates, primary rat microglia, 48 h, read-out: Fibrin IC50
[9] = dose response, fibrin-induced microglia activation, read-out: Fibrin IC50
[10] = fibrin-induced microglia activation, dose response, read-out: Fibrin IC50 (uM) (Suppl. Table 7)
[11] = 48 h, Table 1, dose response 0.001-20 μM, triplicates, primary rat microglia, 48 h, read-out: LPS IC50
[12] = LPS-induced microglia activation, dose response, read-out: LPS IC50 (uM) (Suppl. Table 7)
[13] = dose response, LPS-induced microglia activation, read-out: LPS IC50
[14] = HTS of 1907 compounds, quadrant by fibrin and LPS inhibition
[15] = Microglia, HTS hit classification, read-out: Hit
[16] = hit classification in microglia HTS, read-out: Cherry-picked Hit (Suppl. Table 7)
[17] = quadrant by fibrin and LPS inhibition in HTS of 1907 compounds
[18] = Table 3, read-out: Fibrin IC50 (uM) (Suppl. Table 7)
[19] = Table 3, read-out: LPS IC50 (uM) (Suppl. Table 7)
[20] = Microglia, Table 3, read-out: Cherry-picked Hit (Suppl. Table 7)

SMILES | IC50 [1, 8] | IC50 [1, 9] | IC50 [1, 10] | inhibition at 10 µM [1] | IC50 [2, 11] | inhibition at 10 µM ([2]; 48 h) | IC50 [2, 12] | IC50 [2, 13] | Quadrant (FIG. 5b) [3, 14] | inhibition at 10 µM [3, 15] | inhibition at 10 µM [3, 16] | Quadrant (FIG. 5b) ([3]; Table 1, screen at 10 μM) | Quadrant (FIG. 5b) [3, 17] | IC50 (in vitro [4]; cFib assay) | IC50 (in vitro [5]) | LPS % cell toxicity (primary rat microglia [6]) | Fibrin % cell toxicity (primary rat microglia [7]) | further results
CNC(C)(C)Cc1ccccc1 [Mephentermine sulfate, reference compound] | > 20 µM | > 20 µM | > 20 µM | 60% | > 20 µM | 31% | > 20 µM | > 20 µM | Q3 | > 50% | > 50% | Q3 | Q3 | > 20 µM | > 20 µM | 1% | 2% | –
C=N[C@@H](C(=O)N[C@@H]1C(=O)N2[C@@H]1SC(C)(C)[C@@H]2C(=O)O)c1ccccc1 [Metampicillin sodium, reference compound] | 20 µM | 20 µM | 20 µM | 68% | > 20 µM | 35% | > 20 µM | > 20 µM | Q3 | > 50% | > 50% | Q3 | Q3 | > 20 µM | > 20 µM | 0% | 1% | –
CN1CCN2c3ncccc3Cc3ccccc3C2C1 (stereo not drawn) [Mirtazapine, reference compound] | > 20 µM | > 20 µM | > 20 µM | 57% | > 20 µM | 36% | > 20 µM | > 20 µM | Q3 | > 50% | > 50% | Q3 | Q3 | > 20 µM | > 20 µM | 1% | 2% | –
CCOC(=O)[N-]c1cn(N2CCOCC2)n[o+]1 [Molsidomine, reference compound] | > 20 µM | > 20 µM | > 20 µM | 103% | > 20 µM | 124% | > 20 µM | > 20 µM | Q2 | > 50% | > 50% | Q2 | Q2 | > 20 µM | > 20 µM | 5% | 2% | –
COc1c(C)c2c(c(O)c1C/C=C(\C)CCC(=O)OCCN1CCOCC1)C(=O)OC2 [Mycophenolate mofetil, reference compound] | 2 µM | 2 µM | 2 µM | 94% | 1 µM | 79% | 1 µM | 1 µM | Q2 | > 50% | > 50% | Q2 | Q2 | > 20 µM | > 20 µM | 2% | 2% | –
COc1c(C)c2c(c(O)c1C/C=C(\C)CCC(=O)O)C(=O)OC2 [Mycophenolic acid, reference compound] | 1 µM | 1 µM | 1 µM | 94% | 1 µM | 91% | 1 µM | 1 µM | Q2 | > 50% | > 50% | Q2 | Q2 | > 20 µM | > 20 µM | 2% | 1% | Quadrant (FIG. 5b) ([3]; Table 2, screen at 10 μM): Q2; Activity ([3]; Table 7, fib = fibrin, LPS, tox = toxicity): fib/LPS
COc1ccccc1N1CCN(CC(O)COc2cccc3ccccc23)CC1 (stereo not drawn) [Naftopidil dihydrochloride, reference compound] | 7 µM | 7 µM | 7 µM | 59% | > 20 µM | 32% | > 20 µM | > 20 µM | Q3 | > 50% | – | Q3 | Q3 | > 20 µM | > 20 µM | 0% | 1% | Fibrin Selectivity [1]: 3; Fibrin Selectivity (LOG10) [1]: 0.45; IC50 [1, 18]: 7 µM; IC50 [2, 19]: > 20 µM; inhibition at 10 µM [3, 20]: > 50%; Quadrant (FIG. 5b) ([3]; Table 3, screen at 10 μM): Q3; IC50 (in vitro [4]; Table 3): > 20 µM; IC50 (primary rat microglia [6]): > 20 µM
CCOC(=O)O[C@]1(C(=O)COC(=O)CC)CC[C@H]2[C@@H]3CCC4=CC(=O)C=C[C@]4(C)[C@H]3[C@@H](O)C[C@@]21C [Prednicarbate, reference compound] | 0.002 µM | 0.002 µM | 0.002 µM | 61% | > 20 µM | 73% | > 20 µM | > 20 µM | Q2 | > 50% | – | Q2 | Q2 | > 20 µM | > 20 µM | 1% | 1% | Fibrin Selectivity [1]: 8510; Fibrin Selectivity (LOG10) [1]: 3.93; IC50 [1, 18]: 0.002 µM; IC50 ([1]; Table 6, read-out: Fibrin IC50 (uM) (Suppl. Table 7)): 0.002 µM; IC50 [2, 19]: > 20 µM; IC50 ([2]; Table 6, read-out: LPS IC50 (uM) (Suppl. Table 7)): > 20 µM; inhibition at 10 µM [3, 20]: > 50%; Quadrant (FIG. 5b) ([3]; Table 3, screen at 10 μM): Q2; Quadrant (FIG. 5b) ([3]; microglia HTS, Table 6): Q2; IC50 (in vitro [4]; Table 3): > 20 µM; IC50 (in vitro [4]; cFib assay, Table 6): > 20 µM; IC50 (primary rat microglia [6]): > 20 µM; IC50 (primary rat microglia [6]; Table 6): > 20 µM
C[C@]12C=CC(=O)C=C1CC[C@@H]1[C@@H]2C(=O)C[C@@]2(C)[C@H]1CC[C@]2(O)C(=O)CO [Prednisone, reference compound] | – | – | – | 66% | > 20 µM | 45% | > 20 µM | > 20 µM | Q3 | > 50% | – | Q3 | Q3 | > 20 µM | > 20 µM | 1% and 0% | 1% and 2% | Fibrin Selectivity [1]: 6; IC50 [2, 19]: > 20 µM; inhibition at 10 µM [3, 20]: > 50%; Quadrant (FIG. 5b) ([3]; Table 3, screen at 10 μM): Q3; IC50 (in vitro [4]; Table 3): > 20 µM; IC50 (primary rat microglia [6]): > 20 µM
CC(CCc1ccc(O)cc1)NCC(O)c1ccc(O)cc1 (stereo not drawn) [Ractopamine hydrochloride, reference compound] | 20 µM | 20 µM | 20 µM | 50% | > 20 µM | 39% | > 20 µM | > 20 µM | Q3 | > 50% | > 50% | Q3 | Q3 | > 20 µM | > 20 µM | 0% | 1% | –
O=P(O)(O)C(O)(Cc1cccnc1)P(=O)(O)O [Risedronate sodium, reference compound] | 19 µM | 19 µM | 19 µM | 81% | > 20 µM | 16% | > 20 µM | > 20 µM | Q3 | > 50% | > 50% | Q3 | Q3 | > 20 µM | > 20 µM | 0% | 2% | –
